pEC50: −log10 of the molar value. Read-outs that look alike come from different tables or passages of the source.
Molecular target: T1, F508delCFTR (Homo sapiens, UniProt P13569, DEL508-508)
T1 construct: expressed in transfected cells; host or cells: CFBE41o- human lung-derived epithelial cells (CFBE4lo-F508delCFTR-HRP), doxycycline-inducible
Experiment: Cell Surface Expression-Horse Radish Peroxidase (CSE-HRP) Assay;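 for Maximum % activity (with co-corrector): co-corrector and positive control are both the same reference corrector at 2 µM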;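 for Maximum % activity (without co-corrector): percent of the 2 µM on-plate positive control corrector response above DMSO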
Assay type: cell-based
Conditions: for Emax / Maximum % activity (with co-corrector): maximum at any tested concentration, normalized to on-plate positive control; for Emax: read-out: Maximum % activity (without co-corrector)
Protocol: Cell Surface Expression-Horse Radish Peroxidase (CSE-HRP) Assay;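 for Maximum % activity (with co-corrector): co-corrector and positive control are both the same reference corrector at 2 µM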;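 for Maximum % activity (without co-corrector): percent of the 2 µM on-plate positive control corrector response above DMSO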
The development was achieved by expressing the F508delCFTR mutation along with a horseradish peroxidase (HRP) in the fourth exofacial loop, and then measuring the HRP activity using luminescence readout from these cells, CFBE4lo-F508delCFTR-HRP, that were incubated overnight with the test corrector compounds, either without or with the co-corrector. […] The test compounds were then added either without or with a co-corrector at the required concentrations and further incubated for 18-24 hours at 33° C. The highest concentration tested was 20 μM with an 8-point concentration response curve using a 3-fold dilution in both the test compound without or with the co-corrector. Three replicate plates were run to determine one EC50. All plates contained negative controls (dimethyl sulfoxide, DMSO) and positive control (2 μM of 3-[(2R,4R)-4-({[1-(2,2-difluoro-1,3-benzodioxol-5-yl)cyclopropyl]carbonyl}amino)-7-methoxy-3,4-dihydro-2H-chromen-2-yl]benzoic acid) as well as on-plate concentration response of the positive control. […] The raw counts from the experiment were analyzed using Accelrys® Assay Explorer v3.3.
1−[3*SDPositive Control+3*SDNegative Control/Absolute(MeanPositive Control−MeanNegative Control)]
wherein “SD” is standard deviation.
The % activity measured at each of the 8 test concentrations of the test compound added either without or with a co-corrector (2 μM of 3-[(2R,4R)-4-({[1-(2,2-difluoro-1,3-benzodioxol-5-yl)cyclopropyl]carbonyl}amino)-7-methoxy-3,4-dihydro-2H-chromen-2-yl]benzoic acid) was normalized to the on-plate positive control using the following formulae:
% activity(Test compound without co-corrector)=[(test compound without co-corrector response−DMSO response)/(positive control response−DMSO response)]*100
% activity(Test compound with co-corrector)=[(test compound with co-corrector response−DMSO response)/(positive control response−DMSO response)]*100
The maximum % activity achieved for the test compound either without or with a co-corrector at any tested concentration is presented in Table 4 along with the respective EC50's calculated using the following general sigmoidal curve with variable Hill slope equation (described as Model 42 in the Accelrys® Assay Explorer v3.3 software):
General sigmoidal curve with concentration, response, top, bottom, EC50 and Hill slope. This model describes a sigmoidal curve with an adjustable baseline, a. The equation can be used to fit curves where response is either increasing or decreasing with respect to the independent variable, “x”.
“x” is a concentration of drug under test. “y” is the response. “a” is the maximum response, and “d” is the minimum response “c” is the inflection point (EC50) for the curve. That is, “y” is halfway between the lower and upper asymptotes when x=c. “b” is the slope-factor or Hill coefficient. The sign of b is positive when the response increases with increasing dose and is negative when the response decreases with increasing dose (inhibition).

[1] = test compound without co-corrector
[2] = test compound without co-corrector, read-out: EC50 (without co-corrector)
[3] = with co-corrector (2 μM of 3-[(2R,4R)-4-({[1-(2,2-difluoro-1,3-benzodioxol-5-yl)cyclopropyl]carbonyl}amino)-7-methoxy-3,4-dihydro-2H-chromen-2-yl]benzoic acid)
[4] = with co-corrector (2 μM of 3-[(2R,4R)-4-({[1-(2,2-difluoro-1,3-benzodioxol-5-yl)cyclopropyl]carbonyl}amino)-7-methoxy-3,4-dihydro-2H-chromen-2-yl]benzoic acid), read-out: EC50 (with co-corrector)
[5] = CSE-HRP, test compound without co-corrector, read-out: EC50 (without co-corrector)
[6] = CSE-HRP, with co-corrector (2 μM of 3-[(2R,4R)-4-({[1-(2,2-difluoro-1,3-benzodioxol-5-yl)cyclopropyl]carbonyl}amino)-7-methoxy-3,4-dihydro-2H-chromen-2-yl]benzoic acid), read-out: EC50 (with co-corrector)
[7] = CSE-HRP, with co-corrector (2 μM)

T1 sequence (P13569 with tags, fused parts or gaps DEL508-508): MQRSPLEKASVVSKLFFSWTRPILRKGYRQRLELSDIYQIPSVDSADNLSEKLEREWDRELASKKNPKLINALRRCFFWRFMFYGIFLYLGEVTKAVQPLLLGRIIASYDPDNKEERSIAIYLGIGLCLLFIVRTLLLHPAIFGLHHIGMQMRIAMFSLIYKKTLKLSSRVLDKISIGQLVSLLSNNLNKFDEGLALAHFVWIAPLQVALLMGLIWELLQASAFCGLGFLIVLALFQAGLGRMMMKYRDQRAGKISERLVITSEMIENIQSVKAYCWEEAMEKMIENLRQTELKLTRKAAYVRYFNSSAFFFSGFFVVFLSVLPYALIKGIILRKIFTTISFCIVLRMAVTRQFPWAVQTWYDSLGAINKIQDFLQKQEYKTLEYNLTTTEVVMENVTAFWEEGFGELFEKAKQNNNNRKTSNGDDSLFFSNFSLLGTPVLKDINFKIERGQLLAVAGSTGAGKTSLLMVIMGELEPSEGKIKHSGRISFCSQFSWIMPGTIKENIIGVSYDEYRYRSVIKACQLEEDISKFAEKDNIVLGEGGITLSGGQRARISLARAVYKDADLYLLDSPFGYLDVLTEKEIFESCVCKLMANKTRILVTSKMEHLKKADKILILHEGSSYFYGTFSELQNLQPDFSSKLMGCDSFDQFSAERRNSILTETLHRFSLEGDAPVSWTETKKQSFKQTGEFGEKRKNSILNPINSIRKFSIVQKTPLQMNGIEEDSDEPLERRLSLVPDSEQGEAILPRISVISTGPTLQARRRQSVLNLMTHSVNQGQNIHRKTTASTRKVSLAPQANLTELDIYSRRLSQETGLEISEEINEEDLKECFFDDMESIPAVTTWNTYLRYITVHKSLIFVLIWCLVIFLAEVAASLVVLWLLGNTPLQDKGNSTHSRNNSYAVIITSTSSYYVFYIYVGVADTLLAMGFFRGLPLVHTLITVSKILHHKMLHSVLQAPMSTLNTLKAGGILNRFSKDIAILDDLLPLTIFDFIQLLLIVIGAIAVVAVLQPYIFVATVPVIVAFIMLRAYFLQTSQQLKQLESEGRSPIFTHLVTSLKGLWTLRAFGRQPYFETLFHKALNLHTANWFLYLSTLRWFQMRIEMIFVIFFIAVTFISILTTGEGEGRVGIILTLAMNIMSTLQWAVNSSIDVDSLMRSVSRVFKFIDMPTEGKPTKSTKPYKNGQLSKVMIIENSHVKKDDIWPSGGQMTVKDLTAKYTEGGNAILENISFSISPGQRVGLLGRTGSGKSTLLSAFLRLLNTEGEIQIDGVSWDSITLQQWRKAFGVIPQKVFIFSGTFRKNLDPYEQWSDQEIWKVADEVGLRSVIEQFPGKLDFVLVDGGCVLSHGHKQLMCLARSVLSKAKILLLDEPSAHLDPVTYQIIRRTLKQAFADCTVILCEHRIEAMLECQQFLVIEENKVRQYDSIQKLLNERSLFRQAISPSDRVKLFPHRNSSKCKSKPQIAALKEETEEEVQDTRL

Row | Emax [1] | pEC50 [2] | Maximum % activity (with co-corrector) [3] | pEC50 [4] | pEC50 [5] | pEC50 [6] | Maximum % activity (with co-corrector) [7] | Emax (CSE-HRP, without co-corrector) | Maximum % activity (with co-corrector) (with co-corrector (2 μM)) | Emax (without co-corrector) | Structure (SMILES)
1 | < 100% | < 5.00 | ++ (≥150 and <350) | 5.00 to 6.00 | – | – | – | – | – | – | Cc1ccccc1CN[C@@H]1[C@@H](C(C)(C)C)[C@H](C(=O)O)N(C(=O)CC2CCCC2)[C@@H]1c1ccccc1 (racemic) [III-2]
2 | > 200% | > 6.00 | +++ (≥350) | > 6.00 | – | – | – | – | – | – | COc1ccc(C(C)(C)C)cc1CN[C@H]1[C@H](C(C)(C)C)[C@@H](C(=O)O)N(C(=O)C2CCc3cc(Cl)ccc32)[C@H]1c1ccccc1 (stereo partly shown) [II-369]
3 | – | – | – | – | 5.00 to 6.00 | 5.00 to 6.00 | +++ (≥350) | 100 to 200% | – | – | COc1ncc(C(F)(F)F)cc1CN[C@@H]1[C@@H](C(C)(C)C)[C@H](C(=O)O)N(C(=O)C2CCCCC2)[C@@H]1c1cccnc1N(C)C (racemic) [II-52]
4 | – | 5.00 to 6.00 | – | > 6.00 | – | – | – | – | +++ (≥350) | > 200% | CCCC1(O)CCC(C(=O)N2C(C(=O)O)C(C(C)(C)C)C(NCc3cc(C(C)(C)C)ccc3OC)C2c2ccccc2)CC1 [Example 35, (2S,3S,4S,5S)-3-tert-butyl-4-{[(5-tert-butyl-2-methoxyphenyl)methyl]amino}-1-(cis-4-hydroxy-4-propylcyclohexane-1-carbonyl)-5-phenylpyrrolidine-2-carboxylic acid]
5 | – | – | – | – | > 6.00 | > 6.00 | +++ (≥350) | > 200% | – | – | COc1ccc(-c2cccc(F)c2F)cc1CN[C@H]1[C@H](C(C)(C)C)[C@@H](C(=O)O)N(C(=O)C2CCCCC2)[C@H]1c1ccccc1 [II-286]
6 | – | – | – | – | > 6.00 | > 6.00 | +++ (≥350) | 100 to 200% | – | – | COc1cc(C(C)(C)C)ccc1CN[C@H]1[C@H](C(C)(C)C)[C@@H](C(=O)O)N(C(=O)C2CCCCC2)[C@H]1c1ccccc1OC(F)F [II-124]
7 | – | – | – | – | 5.00 to 6.00 | 5.00 to 6.00 | +++ (≥350) | 100 to 200% | – | – | COc1ccc(-c2ccccc2)nc1CN[C@H]1[C@H](C(C)(C)C)[C@@H](C(=O)O)N(C(=O)C2CCCCC2)[C@H]1c1ccccc1 [II-296]
8 | 100 to 200% | 5.00 to 6.00 | +++ (≥350) | 5.00 to 6.00 | – | – | – | – | – | – | COc1ccc(C(F)(F)F)nc1CN[C@H]1[C@H](C(C)(C)C)[C@@H](C(=O)O)N(C(=O)C2CCCCC2)[C@H]1c1ccccc1 [II-408]
9 | < 100% | < 5.00 | ++ (≥150 and <350) | 5.00 to 6.00 | – | – | – | – | – | – | COc1ccc(Cl)cc1CN[C@@H]1[C@@H](C)[C@H](C(=O)O)N(C(=O)N(C(C)C)C(C)C)[C@@H]1c1ccccc1 (racemic) [III-37]
10 | – | – | – | – | 5.00 to 6.00 | 5.00 to 6.00 | +++ (≥350) | 100 to 200% | – | – | COc1ncc(C2CCC2)cc1CN[C@H]1[C@H](C(C)(C)C)[C@@H](C(=O)O)N(C(=O)[C@@H]2CCCO2)[C@H]1c1cccnc1N(C)C [Example I-281]
11 | – | < 5.00 | – | 5.00 to 6.00 | – | – | – | – | ++ (≥150 and <350) | < 100% | COc1cc(N[C@H]2[C@H](C(C)(C)C)[C@@H](C(=O)O)N(C(=O)C3CCCCC3)[C@H]2c2ccccc2)nc(OC)n1 (racemic) [Example I-9]
12 | – | 5.00 to 6.00 | – | 5.00 to 6.00 | – | – | – | – | +++ (≥350) | 100 to 200% | COc1ccc(C(C)(C)C)cc1CN[C@H]1[C@H](C(C)(C)C)[C@@H](C(=O)O)N(C(=O)c2ccc3c(c2)OCCO3)[C@H]1c1cccnc1N(C)C [Example I-199]
13 | – | – | – | – | 5.00 to 6.00 | 5.00 to 6.00 | +++ (≥350) | > 200% | – | – | COc1ccc(C(C)(C)C)cc1CN[C@H]1[C@H](C(C)(C)C)[C@@H](C(=O)O)N(C(=O)C2(c3ccccn3)CC2)[C@H]1c1ccccc1 [II-189]
14 | > 200% | 5.00 to 6.00 | +++ (≥350) | 5.00 to 6.00 | – | – | – | – | – | – | COc1ccc(C(C)(C)C)cc1CN[C@H]1[C@H](C(C)(C)C)[C@@H](C(=O)O)N(C(=O)[C@@H]2CCC[C@@](C)(O)C2)[C@H]1c1ccccc1 [II-533]
15 | – | 5.00 to 6.00 | – | 5.00 to 6.00 | – | – | – | – | +++ (≥350) | > 200% | COc1ccc(C(C)(C)C)cc1CN[C@H]1[C@H](C(C)(C)C)[C@@H](C(=O)O)N(C(=O)[C@H](C)[C@H]2CCCCO2)[C@H]1c1ccccc1 (relative stereo) [Example I-196]
16 | < 100% | 5.00 to 6.00 | – | 5.00 to 6.00 | – | – | – | – | ++ (≥150 and <350) | – | COc1ccc2cc(C)nc(N[C@H]3[C@H](C(C)(C)C)[C@@H](C(=O)O)N(C(=O)C4CCCCC4)[C@H]3c3ccccc3)c2c1 [III-154]
17 | 100 to 200% | 5.00 to 6.00 | – | 5.00 to 6.00 | – | – | – | – | +++ (≥350) | – | COc1ccc(C2(C)CCC2)cc1CN[C@H]1[C@H](C(C)(C)C)[C@@H](C(=O)O)N(C(=O)[C@H]2CCCCO2)[C@H]1c1cccnc1OC [III-234]
18 | 100 to 200% | 5.00 to 6.00 | +++ (≥350) | 5.00 to 6.00 | – | – | – | – | – | – | COc1cccc(OC)c1CN[C@H]1[C@H](C(C)(C)C)[C@@H](C(=O)O)N(C(=O)C2CCCCC2)[C@H]1c1ccccc1 [II-407]
19 | – | > 6.00 | – | > 6.00 | – | – | – | – | +++ (≥350) | > 200% | COc1ncc(C2CCC2)cc1CN[C@H]1[C@H](C(C)(C)C)[C@@H](C(=O)O)N(C(=O)C2CCCCC2)[C@H]1c1ccccc1 [Example 16, (2S,3S,4S,5S)-3-tert-butyl-4-{[(5-cyclobutyl-2-methoxypyridin-3-yl)methyl]amino}-1-(cyclohexanecarbonyl)-5-phenylpyrrolidine-2-carboxylic acid]
20 | – | > 6.00 | – | > 6.00 | – | – | – | – | +++ (≥350) | > 200% | COc1ccc(-c2ccccc2)cc1CN[C@H]1[C@H](C(C)(C)C)[C@@H](C(=O)O)N(C(=O)C2CCCCC2)[C@H]1c1ccccc1 [Example I-48]
21 | > 200% | 5.00 to 6.00 | – | > 6.00 | – | – | – | – | +++ (≥350) | – | COc1ccc(C(F)(F)F)cc1CN[C@H]1[C@H](C(C)(C)C)[C@@H](C(=O)O)N(C(=O)C2CCC(C)C2)[C@H]1c1ccccc1 (stereo partly shown) [III-198]
22 | – | 5.00 to 6.00 | – | 5.00 to 6.00 | – | – | – | – | +++ (≥350) | 100 to 200% | COc1nc(C(C)(C)C)ncc1CN[C@H]1[C@H](C(C)(C)C)[C@@H](C(=O)O)N(C(=O)C2CCCCC2)[C@H]1c1ccccc1 [Example I-207]
23 | – | > 6.00 | – | > 6.00 | – | – | – | – | +++ (≥350) | > 200% | COc1ncc(-c2ccccc2F)cc1CN[C@H]1[C@H](C(C)(C)C)[C@@H](C(=O)O)N(C(=O)C2CCCCC2)[C@H]1c1ccccc1 [Example I-140]

Row | Structure (SMILES) | Emax [1] | pEC50 [2] | Maximum % activity (with co-corrector) [3] | pEC50 [4] | pEC50 [5] | pEC50 [6] | Maximum % activity (with co-corrector) [7] | Emax (CSE-HRP, without co-corrector) | Maximum % activity (with co-corrector) (with co-corrector (2 μM)) | Emax (without co-corrector)
24 | COc1ccc([Si](C)(C)C)cc1CN[C@H]1[C@H](C(C)(C)C)[C@@H](C(=O)O)N(C(=O)[C@H]2CCCC(F)(F)C2)[C@H]1c1ccccc1 [II-441] | – | > 6.00 | – | > 6.00 | – | – | – | – | – | –

— patent publication US20180099931A1 (AbbVie S.à.r.l., priority 2016, published 2018)
